Measurements: US20170209473A1, “ADIPONECTIN SECRETION REGULATOR” (THE UNIVERSITY OF TOKYO, priority 2014, published 2017)

Experiments:
Type in all cases: cell-based, Mouse
adiponectin = test: Adiponectin expression by adipocytes, reducing SDS-PAGE / Western blotting of culture supernatant; conditions: 3T3-L1-derived adipocytes, 24 hours serum-free DMEM, FIG. 1
Method: (§1) Mouse 3T3-L1 fibroblasts in a confluent state were induced with insulin to differentiate into adipocytes. The cells were then cultured for 48 hours in a DMEM medium containing 10% FBS. The cells were then cultured for 24 hours in a serum-free DMEM medium including L-fucose and/or D-glucose at the concentrations for each test section indicated in Table 1.
(§2) After culturing, the culture supernatant was collected and mixed with an equal amount of reducing SDS-PAGE (polyacrylamide gel electrophoresis) loading buffer and held for 10 minutes at 100° C., a 5-10-μL sample for each lane was subjected to SDS-PAGE, and the nuclear-receptor-type transcription factor PPAR-gamma, actin as an internal standard protein, and adiponectin were detected by a Western blotting method using specific antibodies for each in accordance with the usual method. A near-infrared fluorescence imager (“Odyssey Fc,” manufactured by LI-COR, Inc.) was used for the detection, and the relative expression levels of each protein were compared.

[1] = tested on: nuclear-receptor-type transcription factor PPAR-gamma; test: PPAR-gamma expression in adipocytes, Western blotting; conditions: 3T3-L1-derived adipocytes, 24 hours, FIG. 1
Method: as §1, §2

[2] = tested on: adiponectin monomers, trimers, hexamers and multimers; test: Adiponectin multimerization state, non-reducing SDS-PAGE / Western blotting of culture supernatant; conditions: FIG. 2
Method: as §1
The cell culture supernatant in the same test sections as in Test Example 1 was collected, equivalent samples for each test section were subjected to non-reducing SDS-PAGE, and adiponectin monomers appearing at a molecular weight position of approximately 30 kDa, trimers appearing at a position of approximately 100 kDa, hexamers appearing at a position of approximately 200 kDa, and multimers appearing at higher molecular weight positions were detected by a Western blotting method using specific antibodies for adiponectin. A near-infrared fluorescence imager (“Odyssey Fc,” manufactured by LI-COR, Inc.) was used for the detection, and the various multimerization states were compared.

[3] = 0.1 w/v % glucose + 0.1 w/v % L-fucose (test section 2) vs test section 1, tendency more pronounced at low glucose
[4] = 0.45 w/v % glucose + 0.1 w/v % L-fucose (test section 4) vs test section 3

With `C[C@H](O)[C@@H](O)[C@@H](O)[C@H](O)C=O` [L-fucose] the “expression level of adiponectin” value (adiponectin; 0.1 w/v % glucose + 0.1 w/v % fucose (test section 2) vs test section 1 without fucose) was “tendency for the expression level of adiponectin to decrease”, the “expression level of adiponectin” value (adiponectin; 0.45 w/v % glucose + 0.1 w/v % fucose (test section 4) vs test section 3 without fucose) was “tendency for the expression level of adiponectin to decrease” and the “expression level of PPAR-gamma” value ([1]; 0.1 w/v % D-glucose + 0.1 w/v % L-fucose (test section 2) vs test section 1) was “almost no change”. The “expression level of PPAR-gamma” value ([1]; 0.45 w/v % D-glucose + 0.1 w/v % L-fucose (test section 4) vs test section 3) was “slight decrease”, the adiponectin multimers [2, 3] was “increased” and the “incidence of adiponectin monomers, trimers, and hexamers” value [2, 3] was “reduced”. For the same compound, the adiponectin multimers [2, 4] was “increased” and the “incidence of adiponectin monomers, trimers, and hexamers” value [2, 4] was “reduced”.
